Five substances from patent publication US9388215B2, “Compositions and methods of using islet neogenesis peptides and analogs thereof” (SHENZHEN HIGHTIDE BIOPHARMACEUTICAL, LTD., priority 2013, dated 2016) can be followed below.

One series has as its system normal C57BL/6J mice. As to the kind of experiment: Induction of small β-cell clusters in normal C57BL/6J mice (islet size distribution). It counts as in vivo, mouse. The settings on record: normal mice. How it is done:
After a 1-week acclimation, C57BL/6J female mice were randomly divided into 4 groups. The two control groups received either 10 mL/kg sterile normal saline (n=4) or scrambled peptide (Peptide 3, 25 mg/kg) (n=5) via subcutaneous injection for 10 days. The other two groups received INGAP-PP (Peptide 1) or INGAP-PP analog Peptide 7 at a dose of 25 mg/kg per day respectively (n=7 per group) for the same period. Body weight and 6 hour fasting blood glucose were measured before treatment and after the last dosing of treatment. Plasma and pancreatic insulin were also measured at the end of the study. On day 11, the pancreas was removed from each animal, cleared of fat and lymph nodes, weighed, and fixed in 10% neutral buffered formalin (NBF) for no longer than 24 hours before processing for morphometric analysis.
Immunohistochemistry analysis was used to determine pancreatic islet size distribution.

In another series the test system is pancreatic islets. As to the kind of experiment: Glucose-stimulated insulin secretion (GSIS) of isolated islets. The series is classed as cell-based, rat. The conditions noted are these: 12.0 mM glucose; 10 μg/mL peptide or 100 nM GLP-1; 60 min; FIG. 8. How it is done:
The pancreases were procured from male adult Sprague-Dawley (SD) rats. After 7 days acclimation, the animals were sacrificed by cervical dislocation and the entire pancreas was removed and digested with collagenase to isolate islets. After digestion, islets were maintained at 37° C. in RPMI 1640 (Carlsbad Calif., USA) pH 7.4, containing 10% (v/v) fetal calf serum, 1% penicillin/streptomycin, and 10 mM glucose in a humid atmosphere (5% CO2/95% O2), without the addition of any compound (control), or with the addition of 100 nM glucagon like peptide-1 (GLP-1); or 10 μg/mL Peptide 1, Peptide 12, or Peptide 16, as summarized in Table 4 below. Cultured islets were rinsed in Krebs-Ringer bicarbonate buffer (KRB), pH 7.4, previously gassed with a mixture of CO2/O2 (5/95%), and pre-incubated in 1.0 ml of KRB containing 0.5% (w/v) BSA and 1.5 mM glucose at 37° C. for 45 min. After this period, groups of 5 islets were incubated in 0.6 ml KRB with the addition of 1.5 or 12.0 mM glucose, with or without the addition of peptides for 60 min. At the end of the incubation period, aliquots of the medium were collected for insulin quantitation.

Series [1] can be described thus: Peptide stability in rat plasma. It counts as in vitro ADME. The conditions noted are these: 100 μg/mL, 37° C.; FIG. 12, 13. How it is done:
(§1) The stability of peptides was also tested in rat, mouse and human plasma. Briefly, a certain amount of peptides and eucatropine powder (positive control) was accurately weighed. Test compounds were dissolved in 50% methanol-water solution and diluted to 20 mg/mL, and eucatropine was dissolved in dimethylsulfoxide (DMSO) and diluted to 10 mM, as a stock solution. Eucatropine stock solution was diluted to 0.2 mM with DMSO as a working solution. A stop reagent was prepared containing 200 ng/mL midazolam and tolbutamide in acetonitrile. A volume of 300 μL of stop solution was added to each well of a 96-well deep-well plate placed on ice beforehand.
(§2) For the stability studies, peptides and eucatropine were spiked into plasma respectively, mixed well, and then 100 μL of each mixture solution was transferred into the pre-cooled stop reagent as 0 time point sample. The remaining mixtures were incubated in a 37° C. water bath with shaking at 100 rpm (n=2). The final incubation concentration was 1 μM for eucatropine and 100 μg/mL for all test compounds.
(§3) At desired time points, 100 μL of incubation mixture was transferred to the stop reagent to precipitate proteins. Samples were vortexed and centrifuged at RCF 5000×g for 10 minutes, and supernatant was transferred to a test plate. The samples were analyzed by LC-MS/MS.
(§4) Slope was calculated by plotting the natural logarithm of the percentage of remaining amount of test compounds and time, and T1/2 was calculated in accordance with the following formula.
For stability in rat plasma, the incubation time was 0, 15, 30, 60 and 120 min for Peptide 1 and eucatropine, and 0, 15, 30, 60, 120, and 240 min for Peptide 12, Peptide 16, Peptide 29 and Peptide 31.
In another stability study in rat plasma, the incubation time was 0, 30, 60 120 and 240 min for Peptide 2, Peptide 52, Peptide 64 and eucatropine.

A short description of series [2]: Peptide stability in mouse plasma. It counts as in vitro ADME. The settings on record: 100 μg/mL, 37° C.; FIG. 3, 5, 14. Here is the method: as §1, with “in” for “in rat,”
For the stability studies, peptides and eucatropine were spiked into plasma respectively, mixed well, and then 100 μL of each mixture solution was transferred into the pre-cooled stop reagent as 0 time point sample. The remaining mixtures were incubated in a 37° C. water bath with shaking at 100 rpm (n=2). The final incubation concentration was […] for eucatropine and 100 μg/mL for all test compounds.
as §3, §4
For stability in mouse plasma, the incubation time was 0, 5, 15, 30 and 60 min for Peptide 1 and eucatropine; 0, 15, 30, 60, 120, 240 and 480 min for Peptide 12, Peptide 16 and Peptide 29.
In another stability study in mouse plasma, the incubation time was 0, 30, 60 and 120 min for Peptide 2 and eucatropine; 0, 30, 60, 120, 240 and 960 min for Peptide 52 and Peptide 54.
as §1, §2
For stability in mouse plasma, the incubation time was 0, 15, 30, 60 and 120 min for Peptide 1 and eucatropine; 0, 15, 30, 60, 120, and 240 min for Peptide 31.

Ends that are not written are not given here.

Turning to “H-SHPNGSGTIGLHDPL-OH [Peptide 3, H-SHPNGSGTIGLHDPL-OH]”, the “effect on body weight, blood glucose, plasma insulin, pancreas insulin, pancreas weight” value with normal C57BL/6J mice (25 mg/kg per day sc for 10 days, compared to saline group) is given as “did not affect body weight, blood glucose, plasma insulin, pancreas insulin, or pancreas weight”. Besides, in the series on normal C57BL/6J mice (25 mg/kg, 10 days), the “all parameters measured, scrambled peptide versus normal saline” value was “no difference”. In the case of “GLP-1: Glucagon like peptide-1, 100 nM, included as a positive control in GSIS (HAEGTFTSDVSSYLEGQAAKEFIAWLVKGR; ends and bridges not checked; UniProt P01275 98-127, looked up) [reference compound]”, in the series with pancreatic islets, the “glucose-stimulated insulin release vs islets without peptide” value is reported as “released significantly more insulin than those cultured without the addition of peptides”.

Turning to “Ac-IGLHDPTQGTEPAGE-NH2 [Peptide 62, Ac-IGLHDPTQGTEPAGE-NH2]”, the “stability in rat plasma” value in series [1] was “exhibited good stability in rat plasma and were significantly more stable than HIP”. As for “Ac-IGLHDPTQGTEPNGE-OH [Peptide 54, Ac-IGLHDPTQGTEPNGE-OH]”, in series [2], the “stability in mouse plasma” value is “exhibited good stability in mouse plasma and were significantly more stable than HIP”. Turning to “Ac-IGLHDPTQGTEPAGE-OH [Peptide 52, Ac-IGLHDPTQGTEPAGE-OH]”, the “stability in mouse plasma” value in series [2] was “exhibited good stability in mouse plasma and were significantly more stable than HIP”. In addition, in series [1], the “stability in rat plasma” value was “exhibited good stability in rat plasma and were significantly more stable than HIP”.
